Experimental findings from ChEMBL document CHEMBL4020733, “Approaches towards the development of chimeric DPP4/ACE inhibitors for treating metabolic syndrome” (Bioorg Med Chem Lett, 2017) are described below.

One series has as its target Dipeptidyl peptidase 4 (Homo sapiens, UniProt P27487). Nature of the series: Inhibition of human plasma DPP4.
Series [1] in a line: Plasma protein binding in human. Type of series: ADME, cell-free. The note with it: read-out: PPB (converted).
Series [2] in a line: Plasma protein binding in mouse. Format: ADME, cell-free. The following applies: read-out: PPB (converted).
Series [3] in a line: Plasma protein binding in rat. The following applies: read-out: PPB (converted). Format: ADME, cell-free.
The nature of series [4]: Inhibition of APP (unknown origin). The arrangement: species or system Homo sapiens.
Series [5] addresses Angiotensin-converting enzyme (Homo sapiens, UniProt P12821). Nature of the series: Inhibition of human plasma ACE.
A further series concerns the target Neprilysin (Homo sapiens, UniProt P08473). As to the kind of experiment: Inhibition of NEP (unknown origin).
The target of another series is Aminopeptidase N (Homo sapiens, UniProt P15144). As to the kind of experiment: Inhibition of APN (unknown origin).
Sequence of Aminopeptidase N (P15144 whole entry): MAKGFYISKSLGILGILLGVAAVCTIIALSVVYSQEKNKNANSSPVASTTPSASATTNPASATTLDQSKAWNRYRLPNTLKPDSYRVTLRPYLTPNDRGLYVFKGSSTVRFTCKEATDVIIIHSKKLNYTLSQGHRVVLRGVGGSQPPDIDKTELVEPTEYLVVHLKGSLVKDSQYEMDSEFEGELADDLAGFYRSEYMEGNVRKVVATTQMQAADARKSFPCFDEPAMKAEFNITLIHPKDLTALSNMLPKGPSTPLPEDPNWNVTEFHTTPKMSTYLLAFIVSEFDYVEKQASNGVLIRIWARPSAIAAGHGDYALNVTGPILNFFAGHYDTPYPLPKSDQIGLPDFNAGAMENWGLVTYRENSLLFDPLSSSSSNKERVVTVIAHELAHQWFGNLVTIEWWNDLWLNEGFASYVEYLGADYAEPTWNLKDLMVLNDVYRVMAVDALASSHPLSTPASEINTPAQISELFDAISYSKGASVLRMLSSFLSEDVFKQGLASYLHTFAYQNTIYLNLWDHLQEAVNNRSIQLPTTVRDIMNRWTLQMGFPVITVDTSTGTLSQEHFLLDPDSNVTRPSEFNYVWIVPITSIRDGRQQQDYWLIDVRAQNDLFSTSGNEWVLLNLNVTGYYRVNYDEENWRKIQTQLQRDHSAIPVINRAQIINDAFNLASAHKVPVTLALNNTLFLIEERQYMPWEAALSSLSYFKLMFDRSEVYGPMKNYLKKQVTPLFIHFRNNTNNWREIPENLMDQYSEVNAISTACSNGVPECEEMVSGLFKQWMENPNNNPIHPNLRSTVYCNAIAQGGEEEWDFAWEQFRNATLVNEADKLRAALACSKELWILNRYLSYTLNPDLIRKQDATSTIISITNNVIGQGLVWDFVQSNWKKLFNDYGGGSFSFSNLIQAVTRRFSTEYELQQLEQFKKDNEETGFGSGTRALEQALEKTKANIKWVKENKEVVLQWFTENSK

Sequence of Angiotensin-converting enzyme (P12821 whole entry): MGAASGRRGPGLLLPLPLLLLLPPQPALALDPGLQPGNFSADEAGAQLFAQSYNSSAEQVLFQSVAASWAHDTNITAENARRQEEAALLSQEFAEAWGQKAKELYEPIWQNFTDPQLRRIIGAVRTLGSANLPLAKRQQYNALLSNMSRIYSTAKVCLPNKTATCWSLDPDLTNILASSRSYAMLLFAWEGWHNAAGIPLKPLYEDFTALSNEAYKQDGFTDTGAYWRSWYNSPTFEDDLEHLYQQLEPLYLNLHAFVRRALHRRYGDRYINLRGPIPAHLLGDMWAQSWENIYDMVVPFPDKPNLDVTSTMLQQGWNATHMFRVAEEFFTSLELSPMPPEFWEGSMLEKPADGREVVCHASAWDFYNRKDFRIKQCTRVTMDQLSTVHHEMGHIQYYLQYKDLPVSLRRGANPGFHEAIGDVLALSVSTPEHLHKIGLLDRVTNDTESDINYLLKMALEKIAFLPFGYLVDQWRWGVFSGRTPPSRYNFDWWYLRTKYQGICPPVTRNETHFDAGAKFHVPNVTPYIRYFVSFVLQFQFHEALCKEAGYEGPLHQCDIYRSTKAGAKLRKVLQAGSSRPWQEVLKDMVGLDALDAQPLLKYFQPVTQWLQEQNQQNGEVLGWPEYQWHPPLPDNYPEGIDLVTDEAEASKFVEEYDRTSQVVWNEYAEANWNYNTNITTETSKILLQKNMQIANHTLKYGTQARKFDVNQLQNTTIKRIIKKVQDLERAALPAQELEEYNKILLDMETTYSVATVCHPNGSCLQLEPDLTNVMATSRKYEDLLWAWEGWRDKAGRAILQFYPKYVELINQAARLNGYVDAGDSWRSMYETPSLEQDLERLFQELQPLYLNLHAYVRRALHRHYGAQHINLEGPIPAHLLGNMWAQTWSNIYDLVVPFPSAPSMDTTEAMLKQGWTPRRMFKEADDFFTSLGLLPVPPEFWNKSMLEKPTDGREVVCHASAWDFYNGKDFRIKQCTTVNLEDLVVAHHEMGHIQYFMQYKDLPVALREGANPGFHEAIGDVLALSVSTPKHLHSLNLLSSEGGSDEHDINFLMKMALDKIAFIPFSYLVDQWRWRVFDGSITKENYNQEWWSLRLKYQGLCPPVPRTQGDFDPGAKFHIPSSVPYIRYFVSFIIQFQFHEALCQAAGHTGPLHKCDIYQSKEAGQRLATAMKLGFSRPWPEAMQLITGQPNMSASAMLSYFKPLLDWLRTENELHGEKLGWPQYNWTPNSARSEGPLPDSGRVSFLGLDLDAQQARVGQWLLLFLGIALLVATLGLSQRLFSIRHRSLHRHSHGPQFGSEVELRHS
Sequence of Dipeptidyl peptidase 4 (P27487 whole entry): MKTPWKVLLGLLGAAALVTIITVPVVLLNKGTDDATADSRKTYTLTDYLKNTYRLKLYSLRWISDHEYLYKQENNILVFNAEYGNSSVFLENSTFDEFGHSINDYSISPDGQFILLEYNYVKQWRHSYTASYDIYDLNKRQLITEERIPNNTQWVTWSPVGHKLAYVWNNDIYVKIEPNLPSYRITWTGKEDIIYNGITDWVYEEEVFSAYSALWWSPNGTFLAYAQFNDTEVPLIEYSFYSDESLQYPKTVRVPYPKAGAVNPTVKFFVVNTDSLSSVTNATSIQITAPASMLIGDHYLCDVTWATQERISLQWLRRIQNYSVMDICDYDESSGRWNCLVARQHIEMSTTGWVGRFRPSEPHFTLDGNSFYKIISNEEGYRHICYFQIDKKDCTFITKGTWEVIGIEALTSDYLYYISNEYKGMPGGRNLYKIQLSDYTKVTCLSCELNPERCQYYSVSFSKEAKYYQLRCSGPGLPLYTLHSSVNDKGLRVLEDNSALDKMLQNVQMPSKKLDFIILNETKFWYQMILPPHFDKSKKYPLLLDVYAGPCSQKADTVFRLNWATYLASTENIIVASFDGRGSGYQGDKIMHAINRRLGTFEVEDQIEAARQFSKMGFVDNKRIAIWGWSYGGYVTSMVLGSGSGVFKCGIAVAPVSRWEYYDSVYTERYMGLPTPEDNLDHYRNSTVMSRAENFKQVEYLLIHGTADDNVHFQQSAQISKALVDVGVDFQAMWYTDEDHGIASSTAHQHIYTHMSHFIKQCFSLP
Sequence of Neprilysin (P08473 whole entry): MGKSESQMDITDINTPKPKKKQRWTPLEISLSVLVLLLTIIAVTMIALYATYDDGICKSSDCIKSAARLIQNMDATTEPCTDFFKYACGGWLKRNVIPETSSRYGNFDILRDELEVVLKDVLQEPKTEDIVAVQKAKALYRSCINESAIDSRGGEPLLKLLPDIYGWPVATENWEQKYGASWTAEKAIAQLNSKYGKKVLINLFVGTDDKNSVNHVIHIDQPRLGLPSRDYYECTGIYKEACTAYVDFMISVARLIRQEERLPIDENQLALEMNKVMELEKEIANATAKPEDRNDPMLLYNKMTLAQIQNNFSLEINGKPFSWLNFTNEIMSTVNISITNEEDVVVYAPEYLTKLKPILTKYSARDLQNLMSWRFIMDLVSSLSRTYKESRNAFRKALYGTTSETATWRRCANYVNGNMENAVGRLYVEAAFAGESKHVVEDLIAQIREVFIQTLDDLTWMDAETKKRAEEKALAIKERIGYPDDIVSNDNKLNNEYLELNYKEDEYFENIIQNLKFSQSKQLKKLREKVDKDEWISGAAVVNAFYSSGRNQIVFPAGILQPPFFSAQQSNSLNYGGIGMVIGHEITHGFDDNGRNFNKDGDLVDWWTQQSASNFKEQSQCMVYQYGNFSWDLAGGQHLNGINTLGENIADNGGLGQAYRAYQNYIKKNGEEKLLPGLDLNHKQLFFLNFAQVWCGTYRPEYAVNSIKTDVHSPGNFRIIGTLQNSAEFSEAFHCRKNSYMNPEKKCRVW

For orientation: IC50 means the point on the concentration scale where inhibition reaches its midpoint. High values mean weaker potency in that assay, low ones greater potency in that assay. `C[C@H](N[C@@H](CCc1ccccc1)C(=O)O)C(=O)N1CCC[C@H]1C(=O)O` [ENALAPRILAT ANHYDROUS] gave a half-inhibitory concentration (IC50) against Dipeptidyl peptidase 4 of more than 100 µM. The fraction unbound was 0.341 in series [1], 0.424 in series [2] and 0.456 in series [3].

For the molecule `N[C@@H](CC(=O)N1CCn2c(nnc2C(F)(F)F)C1)Cc1cc(F)c(F)cc1F` [SITAGLIPTIN], the half-maximal inhibitory concentration (IC50) is more than 100 µM in series [4], 11 µM in series [5], more than 100 µM on Neprilysin and more than 100 µM on Aminopeptidase N. Further, the results for the fraction unbound in series [1], in series [2] and in series [3] were 0.53, 0.707 and 0.587, respectively.
